Laboratory results: US20160297830A1, “NOVEL COMPOUNDS USEFUL FOR THE TREATMENT OF BACTERIAL INFECTIOUS DISEASES” (GALAPAGOS NV, priority 2013, published 2016)
≈ marks a conversion by molar mass, not a printed value. Read-outs that look alike come from different tables or passages of the source.

Columns and labels:
[1] = test system: S. aureus Sa1 ATCC 13709; experiment: microbe, parasite or virus in culture; format: cell-based; conditions: Staphylococcus aureus
[2] = test system: S. aureus Sa26 ATCC 25923; experiment: Antibacterial activity assay (MIC), S. aureus Sa26; format: cell-based; conditions: Staphylococcus aureus
[3] = test system: S. aureus Sa4 NCTC 6571; experiment: Antibacterial activity assay (MIC), S. aureus Sa4; format: cell-based; conditions: Staphylococcus aureus
[4] = test system: S. aureus Sa2 clinical strain NCIMB 41953, MRSA; experiment: microbe, parasite or virus in culture; format: cell-based; conditions: Staphylococcus aureus, read-out: MIC Sa2
[5] = test system: H. influenza Hi3 ATCC 31517; experiment: organism not typed; format: cell-based; conditions: read-out: MIC Hi3
[6] = test system: H. influenza Hi10 clinical strain; experiment: organism not typed; format: cell-based; conditions: read-out: MIC Hi10
[7] = test system: H. influenza Hi47 clinical strain, Ampicillin Resistant; experiment: organism not typed; format: cell-based; conditions: read-out: MIC Hi47
[8] = test system: H. influenza Hi106 ATCC 51907; experiment: organism not typed; format: cell-based; conditions: read-out: MIC Hi106
[9] = test system: E. coli Ec1 ATCC 25922; experiment: Antibacterial activity assay (MIC), E. coli Ec1; format: cell-based; conditions: Escherichia coli
[10] = test system: E. coli Ec50 efflux pump KO; experiment: microbe, parasite or virus in culture; format: cell-based; conditions: Escherichia coli, read-out: MIC Ec50 efflux pump KO
[11] = test system: E. coli Ec113 efflux pump KO; experiment: microbe, parasite or virus in culture; format: cell-based; conditions: Escherichia coli, read-out: MIC Ec113 efflux pump KO
[12] = molecular target: DNA Polymerase IIIα (DnaE) from Staphylococcus aureus (Staphylococcus aureus, UniProt Q6GG04); experiment: biochemical
[13] = molecular target: DNA III Polymerase E (Escherichia coli, UniProt P10443); experiment: In vitro activity against DNA III Polymerase E, E. coli; format: biochemical
Method: A radioactive filterplate assay was used to assess inhibitory activity of compounds on DNA Polymerase IIIα. Five μL of a dilution series of compound, starting from 100 μM highest concentration, 1/5 dilution, was added to the wells of a 96 well plate. Recombinant enzyme was diluted to 0.47 μg/mL in a buffer containing 20 mM Tris pH7.5, 8 mM DTT, 10 mM MgOAc, 0.05% CHAPS and 10 μL thereof was added to the compound dilutions. The reaction was started with the addition of 10 μL substrate in the same buffer, containing activated calf thymus DNA (Sigma, D4522), dATP, dGTP, dCTP, dTTP (Invitrogen) and [α-33P]-dTTP (Perkin Elmer, NEG605H001) at a concentration of 62.5 μg/mL, 50 nM and 7.5 μCi/mL respectively. The mixture was incubated at 30° C. for 120 minutes and terminated by addition of phosphoric acid. Samples were transferred to filter plates and incorporated radioactivity was measured by the Topcount. Data were converted to percent inhibition with respect to positive and negative controls. IC50 values were calculated using Graph Prism™ software.

[14] = ATCC13709, S. aureus Sa1 ATCC 13709, sensitive strain, Mueller-Hinton Broth, 37° C., read-out: MIC Sa1
[15] = ATCC25923, read-out: MIC Sa26 + 10% SH, S. aureus Sa26 + 10% SH
[16] = ATCC25923, read-out: MIC Sa26 + 50% SH, S. aureus Sa26 + 50% SH
[17] = ATCC25923, S. aureus Sa26 ATCC 25923, sensitive strain, Mueller-Hinton Broth, 37° C., read-out: MIC Sa26
[18] = NCTC6571, S. aureus Sa4 NCTC 6571, sensitive strain, read-out: MIC Sa4
[19] = ATCC25922, E. coli Ec1 ATCC 25922, sensitive strain, read-out: MIC Ec1
[20] = ATCC25923, read-out: MIC Sa26 + 10% SH
[21] = ATCC25923, read-out: MIC Sa26 + 50% SH

DNA Polymerase IIIα (DnaE) from Staphylococcus aureus, sequence (Q6GG04 1-1022): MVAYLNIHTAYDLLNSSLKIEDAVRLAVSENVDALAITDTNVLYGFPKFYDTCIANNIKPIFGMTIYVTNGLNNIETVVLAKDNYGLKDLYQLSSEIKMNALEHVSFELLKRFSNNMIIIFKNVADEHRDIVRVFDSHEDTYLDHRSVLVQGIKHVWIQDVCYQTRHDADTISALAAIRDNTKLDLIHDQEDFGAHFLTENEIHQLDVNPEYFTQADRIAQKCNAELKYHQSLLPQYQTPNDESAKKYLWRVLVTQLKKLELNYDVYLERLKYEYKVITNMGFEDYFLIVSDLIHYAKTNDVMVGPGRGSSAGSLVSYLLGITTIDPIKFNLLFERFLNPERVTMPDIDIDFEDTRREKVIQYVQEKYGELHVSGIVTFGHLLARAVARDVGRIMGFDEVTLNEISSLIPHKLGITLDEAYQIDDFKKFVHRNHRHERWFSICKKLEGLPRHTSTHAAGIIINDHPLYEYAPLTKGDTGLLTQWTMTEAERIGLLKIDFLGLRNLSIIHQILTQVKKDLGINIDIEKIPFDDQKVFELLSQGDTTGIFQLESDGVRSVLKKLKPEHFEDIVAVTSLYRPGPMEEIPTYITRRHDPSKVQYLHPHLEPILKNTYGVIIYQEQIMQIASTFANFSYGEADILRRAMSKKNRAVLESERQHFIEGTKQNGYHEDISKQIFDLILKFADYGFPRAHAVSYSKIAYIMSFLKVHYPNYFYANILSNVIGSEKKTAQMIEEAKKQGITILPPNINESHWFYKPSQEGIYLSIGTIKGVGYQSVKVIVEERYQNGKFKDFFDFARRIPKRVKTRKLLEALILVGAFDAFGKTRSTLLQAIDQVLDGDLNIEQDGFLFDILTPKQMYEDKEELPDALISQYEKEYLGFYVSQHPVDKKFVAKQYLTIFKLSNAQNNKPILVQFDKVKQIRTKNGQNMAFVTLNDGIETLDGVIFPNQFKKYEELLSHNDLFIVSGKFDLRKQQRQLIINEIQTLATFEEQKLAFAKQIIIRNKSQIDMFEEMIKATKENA
DNA III Polymerase E, sequence (P10443 whole entry): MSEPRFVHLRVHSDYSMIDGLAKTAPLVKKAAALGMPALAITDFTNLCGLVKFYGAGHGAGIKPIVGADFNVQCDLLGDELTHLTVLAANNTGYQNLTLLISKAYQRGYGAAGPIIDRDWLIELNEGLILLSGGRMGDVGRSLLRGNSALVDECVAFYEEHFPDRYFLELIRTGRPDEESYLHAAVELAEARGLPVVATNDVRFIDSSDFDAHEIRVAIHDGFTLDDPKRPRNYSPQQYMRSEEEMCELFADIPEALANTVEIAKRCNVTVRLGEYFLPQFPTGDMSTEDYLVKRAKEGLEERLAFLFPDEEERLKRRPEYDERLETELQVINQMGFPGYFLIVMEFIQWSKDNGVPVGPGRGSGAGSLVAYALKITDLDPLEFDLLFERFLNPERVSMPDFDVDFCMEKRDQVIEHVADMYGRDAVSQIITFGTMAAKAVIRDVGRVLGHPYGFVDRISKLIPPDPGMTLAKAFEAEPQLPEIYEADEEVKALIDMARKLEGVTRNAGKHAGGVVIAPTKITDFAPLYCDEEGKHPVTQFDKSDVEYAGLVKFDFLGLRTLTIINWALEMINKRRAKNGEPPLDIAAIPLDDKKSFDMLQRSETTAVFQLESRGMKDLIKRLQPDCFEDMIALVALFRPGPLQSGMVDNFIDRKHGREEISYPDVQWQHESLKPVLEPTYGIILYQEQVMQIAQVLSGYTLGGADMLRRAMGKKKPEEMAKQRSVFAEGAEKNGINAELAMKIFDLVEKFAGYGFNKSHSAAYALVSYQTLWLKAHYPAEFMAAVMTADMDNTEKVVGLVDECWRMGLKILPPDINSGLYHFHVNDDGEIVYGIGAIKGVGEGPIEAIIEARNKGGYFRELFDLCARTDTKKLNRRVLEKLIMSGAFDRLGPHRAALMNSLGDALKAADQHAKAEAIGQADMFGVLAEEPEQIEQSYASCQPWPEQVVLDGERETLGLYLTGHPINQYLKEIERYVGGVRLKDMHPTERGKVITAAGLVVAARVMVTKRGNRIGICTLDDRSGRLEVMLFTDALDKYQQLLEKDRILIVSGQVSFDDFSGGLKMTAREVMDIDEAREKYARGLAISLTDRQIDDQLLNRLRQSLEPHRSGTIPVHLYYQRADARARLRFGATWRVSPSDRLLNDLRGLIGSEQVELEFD

Row | SMILES | MIC [1, 14] [µg/mL] | MIC [2, 15] [µg/mL] | MIC [2, 16] [µg/mL] | MIC [2, 17] [µg/mL] | MIC [3, 18] [µg/mL] | MIC [4] [µg/mL] | MIC [5] [µg/mL] | MIC [6] [µg/mL] | MIC [7] [µg/mL] | MIC [8] [µg/mL] | MIC [9, 19] [µg/mL] | MIC [10] [µg/mL] | MIC [11] [µg/mL] | IC50 [12] [nM] | MIC ([1]; ATCC13709, read-out: MIC Sa1) [µg/mL] | MIC ([2]; ATCC25923, read-out: MIC Sa26) [µg/mL] | MIC [2, 20] [µg/mL] | MIC [2, 21] [µg/mL] | MIC ([3]; NCTC6571, read-out: MIC Sa4) [µg/mL] | MIC ([9]; ATCC25922, read-out: MIC Ec1) [µg/mL] | further results
1 | COC[C@@H]1[C@@H](O)[C@@H]2[C@H]3C=C[C@@H]4[C@@H](COC)C(=O)O[C@H]([C@H](O)COC)[C@H](C)/C=C(\C)[C@@]24O[C@H]3[C@@H]1OC(=O)c1cc(Br)c(Br)[nH]1 [Compound 34, 8-O-4,5-Dibromo-1H-pyrrole-2′-carbonylbranimycin] | 64 (≈ 87.3 µM) | > 64 | > 64 | 64 (≈ 87.3 µM) | 32 (≈ 43.6 µM) | 64 (≈ 87.3 µM) | > 64 | > 64 | 16 (≈ 21.8 µM) | > 64 | > 64 | > 64 | 64 (≈ 87.3 µM) | – | – | – | – | – | – | – | IC50 ([12]; DNA polymerase III, S. aureus, read-out: IC50 semiquantitative scoring, S. aureus): 1360 to 13600 nM
2 | COCC[C@H]1OC(=O)[C@H](COC)[C@H]2C=C[C@H]3[C@H]4O[C@]2(/C(C)=C/[C@H]1C)[C@@H]3[C@H](O)[C@@H](COC)[C@H]4OC(=O)c1ccc[nH]1 [Compound 4, 17-Deoxy-8-O-1H-pyrrole-2′-carbonylbranimycin] | 4 (≈ 7.15 µM) | 4 | 8 | 4 (≈ 7.15 µM) | 2 (≈ 3.57 µM) | 4 (≈ 7.15 µM) | > 64 | > 64 | – | – | > 64 | > 64 | 4 (≈ 7.15 µM) | 1.79 to 1790 | – | – | – | – | – | – | IC50 [13]: > 17900 nM
3 | COC[C@@H](O)[C@H]1OC(=O)[C@H](COC)[C@H]2C=C[C@H]3[C@H]4O[C@]2(/C(C)=C/[C@H]1C)[C@@H]3[C@H](O)[C@@H](C)[C@H]4OC(=O)c1cc(F)c[nH]1 [Compound 23, 8-O-4-Fluoro-1H-pyrrole-2′-carbonylbaleomycin] | – | – | – | – | – | 4 (≈ 7.1 µM) | > 64 | 64 (≈ 114 µM) | 64 (≈ 114 µM) | 64 (≈ 114 µM) | – | – | 0.12 (≈ 0.213 µM) | 1.77 to 1770 | 1 (≈ 1.77 µM) | 1 (≈ 1.77 µM) | 2 | 4 | 1 (≈ 1.77 µM) | > 64 | IC50 ([13]; DNA polymerase III, E. coli, read-out: IC50 semiquantitative scoring, E. coli): 1770 to 17700 nM
4 | COC/C(=N\OC)[C@H]1OC(=O)[C@H](COC)[C@H]2C=C[C@H]3[C@H]4O[C@]2(/C(C)=C/[C@H]1C)[C@@H]3[C@H](O)[C@@H](COC)[C@H]4OC(=O)c1ccc[nH]1 [Compound 27, 18-Deoxy-18-methoximino-8-O-1H-pyrrole-2′-carbonylbranimycin] | – | – | – | – | – | 1 (≈ 1.66 µM) | > 64 | > 64 | > 64 | > 64 | – | > 64 | 4 (≈ 6.64 µM) | 1.66 to 1660 | 1 (≈ 1.66 µM) | 1 (≈ 1.66 µM) | 2 | 4 | 1 (≈ 1.66 µM) | > 64 | –
5 | COCC(=NOC(C)=O)[C@H]1OC(=O)[C@H](COC)[C@H]2C=C[C@H]3[C@H]4O[C@]2(/C(C)=C/[C@H]1C)[C@@H]3[C@H](O)[C@@H](COC)[C@H]4OC(=O)c1ccc[nH]1 [Compound 29, 18-Acetylimino-18-deoxy-8-O-1H-pyrrole-2′-carbonylbranimycin] | 0.5 (≈ 0.793 µM) | 1 | 2 | 1 (≈ 1.59 µM) | 0.5 (≈ 0.793 µM) | 0.5 (≈ 0.793 µM) | > 64 | > 64 | 64 (≈ 101 µM) | 64 (≈ 101 µM) | > 64 | 32 (≈ 50.7 µM) | 0.5 (≈ 0.793 µM) | 1.59 to 1590 | – | – | – | – | – | – | –
6 | COC[C@@H]1[C@@H](O)[C@@H]2[C@H]3C=C[C@@H]4[C@@H](COC)C(=O)O[C@H]([C@H](O)COC)[C@H](C)/C=C(\C)[C@@]24O[C@H]3[C@@H]1OC(=O)c1cc(Br)c[nH]1 [Compound 32, 8-O-4-Bromo-1H-pyrrole-2′-carbonylbranimycin] | 4 (≈ 6.11 µM) | 16 | 64 | 16 (≈ 24.4 µM) | 8 (≈ 12.2 µM) | 4 (≈ 6.11 µM) | > 64 | > 64 | > 64 | > 64 | > 64 | > 64 | 64 (≈ 97.8 µM) | 1.53 to 1530 | – | – | – | – | – | – | –
